Like-named read-outs stand apart in the source and are kept apart here.
Legend:
Assay type in all cases: cell-based
[1] = Figure 7g: values after +LIH383, +LIH inverse, +CXCL12, +CXCL10
KOR [2] = target: T1, KOR (Homo sapiens, UniProt P41145); experiment: Figure 6h, KOR level after ligand with DMSO or Bafilomycin; design: expressed in transfected cells; host or cells: U87 (human glioblastoma)
CXCR4 = target: T2, CXCR4 (Homo sapiens, UniProt P61073)
T2 construct: expressed in transfected cells; host or cells: U87, transient cotransfection of pNBe vectors
T2 sequence (P61073 whole entry): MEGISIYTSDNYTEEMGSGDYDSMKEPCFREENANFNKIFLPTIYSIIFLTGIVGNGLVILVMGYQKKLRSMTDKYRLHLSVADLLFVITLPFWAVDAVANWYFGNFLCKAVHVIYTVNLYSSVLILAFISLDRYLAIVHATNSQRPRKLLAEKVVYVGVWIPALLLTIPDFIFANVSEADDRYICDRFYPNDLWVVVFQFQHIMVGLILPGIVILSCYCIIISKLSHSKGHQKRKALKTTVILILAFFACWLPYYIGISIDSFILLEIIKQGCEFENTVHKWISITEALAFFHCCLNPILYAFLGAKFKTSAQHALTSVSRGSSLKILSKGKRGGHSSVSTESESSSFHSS

U87 = experiment: Figure S6 EC50 comparison, U87 cells + chemokine; conditions: U87 cells + the labelled chemokine, titrated agonist not given, read-out: Ec50 (inset, Ec50 comparison)
KOR [3] = target: T1, KOR; experiment: Figure 6h, KOR, DMSO vs Bafilomycin treatment; design: expressed in transfected cells; host or cells: U87 (human glioblastoma); conditions: n = 3 or 4 as in cell
CXCR3A = target: T3, CXCR3A (Homo sapiens, UniProt P49682); experiment: Figure S1a: screen of opioid peptides on CXCR3A; conditions: replicate 1
T3 construct: expressed in transfected cells; host or cells: U87 cells
T3 sequence (P49682 1-368): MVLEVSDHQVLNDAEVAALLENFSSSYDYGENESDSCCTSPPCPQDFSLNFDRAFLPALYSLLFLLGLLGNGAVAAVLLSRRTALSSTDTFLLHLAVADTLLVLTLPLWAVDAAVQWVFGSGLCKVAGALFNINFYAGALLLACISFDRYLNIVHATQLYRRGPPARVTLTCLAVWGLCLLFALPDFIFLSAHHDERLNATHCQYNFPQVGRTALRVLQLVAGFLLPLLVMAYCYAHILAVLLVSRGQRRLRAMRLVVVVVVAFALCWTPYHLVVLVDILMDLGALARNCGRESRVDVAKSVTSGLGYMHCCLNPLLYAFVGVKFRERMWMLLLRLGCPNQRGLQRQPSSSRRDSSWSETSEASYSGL

U87.ACKR3 = experiment: Figure S6 EC50 comparison, U87.ACKR3 cells + chemokine; conditions: U87.ACKR3 cells + the labelled chemokine, titrated agonist not given, read-out: Ec50 (inset, Ec50 comparison)
[4] = Figure 7f: response to FBS, CXCL12, opioid peptides and LIH383 relative to Medium; conditions: Medium about 1
CXCR7 = target: T4, CXCR7 (Homo sapiens, UniProt P25106); experiment: Figure S1a: screen of opioid peptides on CXCR7
T4 construct: expressed in transfected cells; host or cells: U87 cells
T4 sequence (P25106 whole entry): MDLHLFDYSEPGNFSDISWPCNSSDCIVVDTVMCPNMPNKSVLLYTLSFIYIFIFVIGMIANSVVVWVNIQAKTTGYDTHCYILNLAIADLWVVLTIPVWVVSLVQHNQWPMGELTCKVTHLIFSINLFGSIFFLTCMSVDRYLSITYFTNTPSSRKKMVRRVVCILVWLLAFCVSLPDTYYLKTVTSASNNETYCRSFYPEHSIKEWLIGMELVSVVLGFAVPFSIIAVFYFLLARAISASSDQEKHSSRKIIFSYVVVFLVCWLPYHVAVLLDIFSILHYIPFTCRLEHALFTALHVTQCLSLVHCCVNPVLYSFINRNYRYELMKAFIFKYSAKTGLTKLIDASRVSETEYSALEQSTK

T1 sequence (P41145 whole entry): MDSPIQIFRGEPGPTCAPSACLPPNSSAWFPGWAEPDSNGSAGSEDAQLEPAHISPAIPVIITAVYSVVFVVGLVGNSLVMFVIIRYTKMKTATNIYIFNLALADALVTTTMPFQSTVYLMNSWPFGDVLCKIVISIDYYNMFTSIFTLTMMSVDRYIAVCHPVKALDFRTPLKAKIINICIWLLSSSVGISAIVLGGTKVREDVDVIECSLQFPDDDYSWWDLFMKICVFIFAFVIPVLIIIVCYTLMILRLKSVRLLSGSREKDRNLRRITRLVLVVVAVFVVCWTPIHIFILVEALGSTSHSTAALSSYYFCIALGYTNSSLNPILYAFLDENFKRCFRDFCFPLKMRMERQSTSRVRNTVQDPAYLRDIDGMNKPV

Row | Substance | Figure 7g value ([1]; replicate 1) | Figure 7g value ([1]; replicate 2) | Figure 7g value ([1]; replicate 3) | Figure 7g value ([1]; replicate 4) | Figure S1a value, CXCR4 (CXCR4; replicate 1) | Figure S1a value, CXCR4 (CXCR4; replicate 2) | EC50 (U87; replicate 1) [nM] | EC50 (U87; replicate 2) [nM] | EC50 (U87; replicate 3) [nM] | Figure S1a value, CXCR3A (CXCR3A) | EC50 (U87.ACKR3; replicate 1) [nM] | EC50 (U87.ACKR3; replicate 2) [nM] | EC50 (U87.ACKR3; replicate 3) [nM] | other results
1 | CXCL12 | 102.594 | 103.187 | 90.4001 | 88.8058 | 122.173 | 86.6576 | 2.9 | 11 | 6.04 | 103.792 | 7.39 | 9.3 | 13.1 | KOR level after ligand (Figure 6h) (KOR [2]; Bafilomycin, replicate 1): 115.399; KOR level after ligand (Figure 6h) (KOR [2]; Bafilomycin, replicate 2): 101.029; KOR level after ligand (Figure 6h) (KOR [2]; Bafilomycin, replicate 3): 116.035; KOR level after ligand (Figure 6h) (KOR [2]; Bafilomycin, replicate 4): 117.81; KOR level after ligand (Figure 6h) (KOR [2]; DMSO, replicate 1): 95.0504; KOR level after ligand (Figure 6h) (KOR [2]; DMSO, replicate 3): 120.17; KOR level after ligand (Figure 6h) (KOR [2]; DMSO, replicate 4): 114.207; EC50 (U87; replicate 4): 5.61 nM; Mean ± SEM (Figure 6h, KOR) (KOR [3]; 'DMSO vs Bafilomycin treatment'): 112,6 ± 3,88, n=4; Mean ± SEM (Figure 6h, KOR) (KOR [3]; first of two columns under 'DMSO vs Bafilomycin treatment' (presumably DMSO)): 107,9 ± 5,673, n=4; Figure 7f value ([4]; replicate 1): 0.8915; Figure 7f value ([4]; replicate 2): 0.9254; Figure 7f value ([4]; replicate 4): 0.9153
2 | CXCL10 | 43.9358 | 53.1833 | 71.6583 | 66.9981 | 64.0305 | 102.577 | 6.8 | 9.32 | 14 | 79.87 | 17.2 | 18.1 | 19.3 | EC50 (U87.ACKR3; replicate 4): 29.1 nM; Figure S1a value, CXCR7 (CXCR7; replicate 1): 93.7533; Figure S1a value, CXCR7 (CXCR7; replicate 2): 74.5914

— publication PMC7305236, “The atypical chemokine receptor ACKR3/CXCR7 is a broad-spectrum scavenger for opioid peptides” (Nature Communications, 2020)
